Assay results as given in ChEMBL document CHEMBL1141566, “Synthesis and antitumor evaluation of bis aza-anthracene-9,10-diones and bis aza-anthrapyrazole-6-ones” (2008).

Key:
Format in all cases: functional
[1] = tested on: HT-29; experiment: Cytotoxicity against human HT29 cells after 72 hrs; conditions: HT-29, 72 h
[2] = tested on: HT-29; experiment: Effect on apoptosis in human HT29 PI-/AnnV- cells after 6 hrs by biparametric flow cytometric analysis; conditions: HT-29, 6 h, read-out: LC50 (the source's name)
[3] = tested on: HT-29; experiment: Effect on apoptosis in human HT29 PI+/AnnV- cells after 6 hrs by biparametric flow cytometric analysis; conditions: HT-29, 6 h, read-out: LC50 (the source's name)
[4] = tested on: HT-29; experiment: Effect on apoptosis in human HT29 PI-/AnnV+ cells after 6 hrs by biparametric flow cytometric analysis; conditions: HT-29, 6 h, read-out: LC50 (the source's name)
[5] = tested on: HT-29; experiment: Effect on apoptosis in human HT29 PI+/AnnV+ cells after 6 hrs by biparametric flow cytometric analysis; conditions: HT-29, 6 h, read-out: LC50 (the source's name)
[6] = tested on: HT-29; experiment: Effect on apoptosis in human HT29 PI-/AnnV- cells after 12 hrs by biparametric flow cytometric analysis; conditions: HT-29, 12 h, read-out: LC50 (the source's name)
[7] = tested on: HT-29; experiment: Effect on apoptosis in human HT29 PI+/AnnV- cells after 12 hrs by biparametric flow cytometric analysis; conditions: HT-29, 12 h, read-out: LC50 (the source's name)
[8] = tested on: HT-29; experiment: Effect on apoptosis in human HT29 PI-/AnnV+ cells after 12 hrs by biparametric flow cytometric analysis; conditions: HT-29, 12 h, read-out: LC50 (the source's name)
[9] = tested on: HT-29; experiment: Effect on apoptosis in human HT29 PI+/AnnV+ cells after 12 hrs by biparametric flow cytometric analysis; conditions: HT-29, 12 h, read-out: LC50 (the source's name)
[10] = tested on: HT-29; experiment: Effect on apoptosis in human HT29 PI-/AnnV- cells after 24 hrs by biparametric flow cytometric analysis; conditions: HT-29, 24 h, read-out: LC50 (the source's name)
[11] = tested on: HT-29; experiment: Effect on apoptosis in human HT29 PI+/AnnV- cells after 24 hrs by biparametric flow cytometric analysis; conditions: HT-29, 24 h, read-out: LC50 (the source's name)
[12] = tested on: HT-29; experiment: Effect on apoptosis in human HT29 PI-/AnnV+ cells after 24 hrs by biparametric flow cytometric analysis; conditions: HT-29, 24 h, read-out: LC50 (the source's name)
[13] = tested on: HT-29; experiment: Effect on proapoptotic BAK1 gene expression in human HT29 cells after 6 hrs
[14] = tested on: HT-29; experiment: Effect on proapoptotic BAX gene expression in human HT29 cells after 6 hrs
[15] = tested on: HT-29; experiment: Effect on apoptotic BCL2L1 gene expression in human HT29 cells after 6 hrs
[16] = tested on: HT-29; experiment: Effect on proapoptotic BCL2 gene expression in human HT29 cells after 6 hrs
[17] = tested on: HT-29; experiment: Effect on apoptotic BCL2L10 gene expression in human HT29 cells after 6 hrs
[18] = tested on: HT-29; experiment: Effect on proapoptotic BCL2L11 gene expression in human HT29 cells after 6 hrs
[19] = tested on: HT-29; experiment: Effect on proapoptotic BNIP1 gene expression in human HT29 cells after 6 hrs
[20] = tested on: HT-29; experiment: Effect on proapoptotic BNIP3L gene expression in human HT29 cells after 6 hrs
[21] = tested on: HT-29; experiment: Effect on apoptotic MCL1 gene expression in human HT29 cells after 6 hrs
[22] = tested on: HT-29; experiment: Effect on proapoptotic CASP7 gene expression in human HT29 cells after 6 hrs
[23] = tested on: HT-29; experiment: Effect on proapoptotic CASP9 gene expression in human HT29 cells after 6 hrs
[24] = tested on: HT-29; experiment: Effect on apoptotic CFLAR gene expression in human HT29 cells after 6 hrs
[25] = tested on: HT-29; experiment: Effect on proapoptotic NOD1 gene expression in human HT29 cells after 6 hrs
[26] = tested on: HT-29; experiment: Effect on proapoptotic CARD6 gene expression in human HT29 cells after 6 hrs
[27] = tested on: HT-29; experiment: Effect on proapoptotic CARD8 gene expression in human HT29 cells after 6 hrs
[28] = tested on: HT-29; experiment: Effect on proapoptotic CIDEB gene expression in human HT29 cells after 6 hrs
[29] = tested on: HT-29; experiment: Effect on apoptotic NOL3 gene expression in human HT29 cells after 6 hrs
[30] = tested on: HT-29; experiment: Effect on apoptotic GADD45A gene expression in human HT29 cells after 6 hrs
[31] = tested on: HT-29; experiment: Effect on proapoptotic BFAR gene expression in human HT29 cells after 6 hrs
[32] = tested on: HT-29; experiment: Effect on apoptotic BIRC8 gene expression in human HT29 cells after 6 hrs
[33] = tested on: HT-29; experiment: Effect on proapoptotic BAK1 gene expression in human HT29 cells after 12 hrs
[34] = tested on: HT-29; experiment: Effect on proapoptotic BAX gene expression in human HT29 cells after 12 hrs
[35] = tested on: HT-29; experiment: Effect on proapoptotic BCLAF1 gene expression in human HT29 cells after 12 hrs
[36] = tested on: HT-29; experiment: Effect on proapoptotic BNIP3L gene expression in human HT29 cells after 12 hrs
[37] = tested on: HT-29; experiment: Effect on proapoptotic CIDEB gene expression in human HT29 cells after 12 hrs
[38] = tested on: HT-29; experiment: Effect on apoptotic NOL3 gene expression in human HT29 cells after 12 hrs
[39] = tested on: HT-29; experiment: Effect on apoptotic BRAF gene expression in human HT29 cells after 12 hrs
[40] = tested on: HT-29; experiment: Effect on proapoptotic BFAR gene expression in human HT29 cells after 12 hrs
[41] = tested on: HT-29; experiment: Effect on proapoptotic LTBR gene expression in human HT29 cells after 6 hrs
[42] = tested on: HT-29; experiment: Effect on proapoptotic LTBR gene expression in human HT29 cells after 12 hrs
[43] = tested on: HT-29; experiment: Effect on proapoptotic TNFRSF10A gene expression in human HT29 cells after 6 hrs
[44] = tested on: HT-29; experiment: Effect on apoptotic MCL1 gene expression in human HT29 cells after 12 hrs
[45] = tested on: HT-29; experiment: Effect on apoptotic CFLAR gene expression in human HT29 cells after 12 hrs
[46] = tested on: HT-29; experiment: Effect on apoptotic BIRC3 gene expression in human HT29 cells after 12 hrs
[47] = tested on: HT-29; experiment: Effect on apoptotic BIRC8 gene expression in human HT29 cells after 12 hrs
[48] = tested on: HT-29; experiment: Effect on proapoptotic CARD6 gene expression in human HT29 cells after 12 hrs
[49] = tested on: HT-29; experiment: Effect on apoptosis in human HT29 PI+/AnnV+ cells after 24 hrs by biparametric flow cytometric analysis; conditions: HT-29, 24 h, read-out: LC50 (the source's name)
[50] = tested on: HT-29; experiment: Effect on proapoptotic TNFRSF10A gene expression in human HT29 cells after 12 hrs
[51] = tested on: HT-29; experiment: Effect on proapoptotic TNFRSF10B gene expression in human HT29 cells after 12 hrs
[52] = tested on: HT-29; experiment: Effect on apoptotic BAG1 gene expression in human HT29 cells after 6 hrs
[53] = tested on: HT-29; experiment: Effect on apoptotic BAG4 gene expression in human HT29 cells after 6 hrs
[54] = tested on: HT-29; experiment: Effect on apoptotic BAG4 gene expression in human HT29 cells after 12 hrs
[55] = tested on: HT-29; experiment: Effect on apoptotic BCL10 gene expression in human HT29 cells after 12 hrs
[56] = tested on: HT-29; experiment: Effect on apoptotic AKT1 gene expression in human HT29 cells after 12 hrs
[57] = tested on: HT-29; experiment: Effect on apoptotic IGF1R gene expression in human HT29 cells after 6 hrs
[58] = tested on: HT-29; experiment: Effect on apoptotic IGF1R gene expression in human HT29 cells after 12 hrs
[59] = tested on: HT-29; experiment: Effect on apoptotic BIRC6 gene expression in human HT29 cells after 6 hrs

SMILES: CN(C)CCn1nc2c3c(c(NCCCN(C)CCCNc4ccc5c6c(nn5CCN(C)C)-c5cnccc5C(=O)c46)ccc31)C(=O)c1ccncc1-2
- GI50 [1]: 0.00036 µM
- LC50 (concentration killing 50% of cells) [1]: 9.8 µM
- TGI [1]: 1.3 µM
- CC50 [2]: 72.5 µM
- CC50 [3]: 3.4 µM
- CC50 [4]: 22.3 µM
- CC50 [5]: 1.8 µM
- CC50 [6]: 60 µM
- CC50 [7]: 4.2 µM
- CC50 [8]: 32.4 µM
- CC50 [9]: 3.4 µM
- CC50 [10]: 8.3 µM
- CC50 [11]: 7.2 µM
- CC50 [12]: 62.3 µM
- Fold change [13]: 4.5
- Fold change [14]: 4.1
- Fold change [15]: 1.2
- Fold change [16]: -2.8
- Fold change [17]: 2.2
- Fold change [18]: 7.7
- Fold change [19]: 3
- Fold change [20]: 7.4
- Fold change [21]: -5
- Fold change [22]: 5.6
- Fold change [23]: 2.2
- Fold change [24]: -2.2
- Fold change [25]: 4.2
- Fold change [26]: -2.7
- Fold change [27]: 4
- Fold change [28]: 8.3
- Fold change [29]: -2.5
- Fold change [30]: 8.8
- Fold change [31]: -7
- Fold change [32]: -5.6
- Fold change [33]: 4.1
- Fold change [34]: 1.3
- Fold change [35]: 136
- Fold change [36]: 3.6
- Fold change [37]: 2.4
- Fold change [38]: -3.8
- Fold change [39]: -9.1
- Fold change [40]: -2.5
- Fold change [41]: -5.3
- Fold change [42]: -4.3
- Fold change [43]: -2.5
- Fold change [44]: -2.7
- Fold change [45]: -3.3
- Fold change [46]: -6.3
- Fold change [47]: -33.3
- Fold change [48]: -6.7
- CC50 [49]: 22.2 µM
- Fold change [50]: -5.9
- Fold change [51]: -4.3
- Fold change [52]: -2.5
- Fold change [53]: -7
- Fold change [54]: -3.3
- Fold change [55]: -2.2
- Fold change [56]: -6.3
- Fold change [57]: -38.5
- Fold change [58]: -4
- Fold change [59]: -2.6
